Test results published in patent US20030235904A1, “Bacterial parts washer, composition and method of use” (Osprey Biotechnics, Inc., priority 2002, published 2003).

What was measured:
[1] = test system: Pseudomonas putida NRRL-B-18118; assay: Oxygen uptake (BOD analyzer) with NEODOL 91-6 and 1% motor oil; format: cell-based; parameters: oxygen uptake: unit not given here; details: for oxygen uptake: 25° C.
Method: The assay measured oxygen uptake of Pseudomonas putida NRRL-B-18118 in the presence 0.001 to 1.0% NEODOL 91-6 and 1% motor oil in a minimal media broth. The pseudomonads were suspended at 10^8 CFU/mL and placed in a HATCH Model 2173B biological oxygen demand (BOD) analyzer at 25° C. […] was measured over a 48 hour time period.

[2] = test system: Pseudomonas putida NRRL-B-18118; assay: Shelf-life of the pseudomonad stored with NEODOL 91-6 (plate counts); format: cell-based
Method: The Pseudomonas putida NRRL-B-18118 was stabilized in a liquid according to the method described in U.S. Pat. No. 5,980,747 to Vandenbergh. Briefly, sodium nitrate was mixed with water in an amount of 0.26 gm per 100 gm (mL) of water. This produced a 0.26% solution by weight. To this solution, Pseudomonas putida NRRL-B-18118 was added in an amount to provide a final concentration of 1.4×10^8 CFU/mL of the pseudomonad and a final concentration of nitrate of 0.13%. Optionally, a buffering amount of monoammonium phosphate was added at a ratio between about 1:1 to 125:1 sodium nitrate to monoammonium phosphate to enhance the preservation of the pseudomonad at 25° C.
Pseudomonas putida NRRL-B-18118 was stabilized in a liquid according as described in Example 1. The stabilized pseudomonads were then mixed with the ethoxylated surfactant NEODOL 91-6 at the appropriate amount to arrive at the appropriate fixed concentration. The solutions were incubated at 25° C. At various times, aliquots were removed and plated on agar plates and the colony forming units (CFU) per mL were recorded.

Substance: (C9-C11) alkyl alcohol ethoxylate (polyethyleneglycol-(C9-C11)-ether) [NEODOL 91-6]
- oxygen uptake ([1]; 0.001% NEODOL 91-6, 1% motor oil, 0 h): 0
- oxygen uptake ([1]; 0.001% NEODOL 91-6, 1% motor oil, 12 h): 40
- oxygen uptake ([1]; 0.001% NEODOL 91-6, 1% motor oil, 21 h): 100
- oxygen uptake ([1]; 0.001% NEODOL 91-6, 1% motor oil, 28 h): 140
- oxygen uptake ([1]; 0.001% NEODOL 91-6, 1% motor oil, 31 h): 160
- oxygen uptake ([1]; 0.001% NEODOL 91-6, 1% motor oil, 48 h): 200
- oxygen uptake ([1]; 0.01% NEODOL 91-6, 1% motor oil, 0 h): 0
- oxygen uptake ([1]; 0.01% NEODOL 91-6, 1% motor oil, 12 h): 40
- oxygen uptake ([1]; 0.01% NEODOL 91-6, 1% motor oil, 21 h): 40
- oxygen uptake ([1]; 0.01% NEODOL 91-6, 1% motor oil, 28 h): 60
- oxygen uptake ([1]; 0.01% NEODOL 91-6, 1% motor oil, 31 h): 60
- oxygen uptake ([1]; 0.01% NEODOL 91-6, 1% motor oil, 48 h): 110
- oxygen uptake ([1]; 0.1% NEODOL 91-6, 1% motor oil, 0 h): 0
- oxygen uptake ([1]; 0.1% NEODOL 91-6, 1% motor oil, 12 h): 20
- oxygen uptake ([1]; 0.1% NEODOL 91-6, 1% motor oil, 21 h): 40
- oxygen uptake ([1]; 0.1% NEODOL 91-6, 1% motor oil, 28 h): 60
- oxygen uptake ([1]; 0.1% NEODOL 91-6, 1% motor oil, 31 h): 80
- oxygen uptake ([1]; 0.1% NEODOL 91-6, 1% motor oil, 48 h): 110
- oxygen uptake ([1]; 0.5% NEODOL 91-6, 1% motor oil, 0 h): 0
- oxygen uptake ([1]; 0.5% NEODOL 91-6, 1% motor oil, 12 h): 20
- oxygen uptake ([1]; 0.5% NEODOL 91-6, 1% motor oil, 21 h): 40
- oxygen uptake ([1]; 0.5% NEODOL 91-6, 1% motor oil, 28 h): 50
- oxygen uptake ([1]; 0.5% NEODOL 91-6, 1% motor oil, 31 h): 70
- oxygen uptake ([1]; 0.5% NEODOL 91-6, 1% motor oil, 48 h): 90
- oxygen uptake ([1]; 1.0% NEODOL 91-6, 1% motor oil, 0 h): 0
- oxygen uptake ([1]; 1.0% NEODOL 91-6, 1% motor oil, 12 h): 10
- oxygen uptake ([1]; 1.0% NEODOL 91-6, 1% motor oil, 21 h): 20
- oxygen uptake ([1]; 1.0% NEODOL 91-6, 1% motor oil, 28 h): 30
- oxygen uptake ([1]; 1.0% NEODOL 91-6, 1% motor oil, 31 h): 50
- oxygen uptake ([1]; 1.0% NEODOL 91-6, 1% motor oil, 48 h): 80
- function of the pseudomonads in the presence of NEODOL 91-6 ([1]; tested NEODOL 91-6 concentrations, 48 hour time period): remained functional
- CFU/mL (time) ([2]; 0.5% NEODOL 91-6, 25° C., 1 Month): 5.0 × 10^7 CFU/mL
- CFU/mL (time) ([2]; 0.5% NEODOL 91-6, 25° C., 3 Months): 1.0 × 10^7 CFU/mL
- CFU/mL (time) ([2]; 0.5% NEODOL 91-6, 25° C., 5 Months): 3.0 × 10^7 CFU/mL
- CFU/mL (time) ([2]; 0.5% NEODOL 91-6, 25° C., 7 Months): 6.0 × 10^6 CFU/mL
- CFU/mL (time) ([2]; 0.5% NEODOL 91-6, 25° C., Zero (h)): 1.4 × 10^8 CFU/mL
- CFU/mL (time) ([2]; 1.0% NEODOL 91-6, 25° C., 1 Month): 5.0 × 10^7 CFU/mL
- CFU/mL (time) ([2]; 1.0% NEODOL 91-6, 25° C., 3 Months): 1.5 × 10^7 CFU/mL
- CFU/mL (time) ([2]; 1.0% NEODOL 91-6, 25° C., 5 Months): 1.0 × 10^7 CFU/mL
- CFU/mL (time) ([2]; 1.0% NEODOL 91-6, 25° C., 7 Months): 1.0 × 10^6 CFU/mL
- CFU/mL (time) ([2]; 1.0% NEODOL 91-6, 25° C., Zero (h)): 1.4 × 10^8 CFU/mL
- CFU/mL (time) ([2]; 5.0% NEODOL 91-6, 25° C., 1 Month): 5.0 × 10^7 CFU/mL
- CFU/mL (time) ([2]; 5.0% NEODOL 91-6, 25° C., 3 Months): 1.4 × 10^7 CFU/mL
- CFU/mL (time) ([2]; 5.0% NEODOL 91-6, 25° C., 5 Months): 1.0 × 10^7 CFU/mL
- CFU/mL (time) ([2]; 5.0% NEODOL 91-6, 25° C., 7 Months): 1.0 × 10^6 CFU/mL
- CFU/mL (time) ([2]; 5.0% NEODOL 91-6, 25° C., Zero (h)): 1.4 × 10^8 CFU/mL
- effect on shelf-life of Pseudomonas putida NRRL-B-18118 ([2]; NEODOL 91-6 0.5 to 5% in the storage solution): not adversely affected
- decrease in viability of the pseudomonads ([2]; stored in the presence of NEODOL 91-6, over seven months): two log decrease
